Source: patent publication US6552073B1, “Compounds and methods of treating cell proliferative diseases” (Exonhit Therapeutics SA, priority 2002, dated 2003)
Entries after “also recorded” stand apart in the source; their conditions may differ.

Columns and labels:
MDA-MB-231 cells = experiment: Matrigel invasion assay (Boyden chamber); type: cell-based, human; conditions: MDA-MB-231 cells
Method: d) Migration and Matrigel Invasion Assay
Chemoinvasion assay was performed in Boyden chamber as described by Albini et al (Cancer Res, 1987) with some modifications. Polycarbonate membranes with 8μm pores were coated with matrigel (125 μg/cm^2) at room temperature for 48 h. Two hours before experiments, the matrix was […] with serum-free medium containing 0.1% BSA.
One day after seeding, 10^6 MDA-MB-231 cells were treated overnight with different concentrations of compounds (1, 10, 17.5, 25 and 50 μM). Cells were collected with Versene (Invitrogen), counted with trypan blue exclusion, rinsed twice in serum-free medium containing 0.1% BSA and resuspended in serum-free medium containing 0.1% BSA plus the appropriate concentration of compound. 10^5 treated cells were placed in the upper chamber. Medium containing 10% of FBS plus the appropriate concentration of compound was placed in the lower chamber as a chemoattractant. The Boyden chamber was incubated 6 hours at 37° C. before the cells were fixed and stained with Diff-Quick (Dade-Berhing). Cells on the upper part of the filters were removed using a cotton swab. Cells on the underside of the filters were visualised and counted under light microscope. The migration assay was performed the same way, using non-coated filters.

NIH3T3 = experiment: Cytoskeleton analysis, actin staining; type: cell-based, mouse; design: key to Cell architecture modification, actin staining NIH3T3, ruffles (R) / Cell architecture modification, actin staining NIH3T3, focal complexes (FC): a decrease in cellular ruffles density was noted R−; an increase in focal complexes density was noted FC+
Method: (§1) Since major rearrangements of cytoskeleton are observed in tumor cells and since the small GTPases are known to regulate these events, analysis of actin cytoskeleton was performed. Subconfluent cells seeded onto coverslips were treated with different concentration of compound (1, 10, 17.5, 25 and 50 μM) or vehicle for 24 h, before being fixed in 4% formaldehyde for 15 min., permeabilized in 0.2% Triton X100 for 5 minutes and incubated in PowerBlock (Biogenex) for 10 min. Actin filaments were stained with 0.5 μg/ml fluorescein isothiocyanate (FITC)-labelled phalloidin for 1 hour. Analysis was performed using an inverted fluorescent microscope.

HCT116 = experiment: Cytoskeleton analysis, actin staining; type: cell-based, human
Method: as §1

H460 = experiment: Cytoskeleton analysis, actin staining; type: cell-based, human
Method: as §1

[1] = tested on: NIH3T3 cells transfected with RasV12; experiment: Colony formation assay in the presence of constitutively activated Ras (RasV12); type: cell-based, mouse; design: key to Colony formation: −: no effect of the compound was observed; +: an effect of the compound was observed; conditions: for Ras-dependent neoR clones formation: NIH3T3, RasV12; for Colony formation: NIH3T3, neoR colonies
Method: c) Ras/Rac-dependant Signaling Pathway Analysis
The impact of the compounds on Ras and Rac signaling pathways was analysed with two reporter systems described by Imler (Nature 1988) and Lin (Science, 1995) respectively on one hand, and by a colony formation assay in the presence of constitutively activated Ras (RasV12) and Rac (RacV12) on the other hand. For this latter experiment, fifty percent confluent NIH3T3 cells in a 10 cm diameter petri dish were transfected with 0.5 μg pSV2-RasV12 or 0.5 μg pEXV RacV12 plasmids plus 100 ng of pSV2-neomycin plasmid using Lipofectamine-Plus reagent (Invitrogen) according to the manufacturer's instructions. Forty-eight hours later, cells were trypsinised, splitted to 1/3, and incubated in the presence of complete medium supplemented with 400 μg/ml geneticin (Invitrogen) and different doses of compound (1, 10, 17.5, 25 and 50 μM) until emerging resistant clones appear (2-3 weeks). The medium was renewed every 3 days. Colonies with a minimum of 50 cells were counted after staining with Fuschin 2%.

MMP-9 = experiment: Gelatin zymography; type: cell-based, human; conditions: zymogram gel, MDA-MB-231 supernatant
Method: (§2) The activity of the metalloproteases MMP-2 and MMP-9 was assayed using gelatinolytic zymography according to Lambert (Surgery 1997). Briefly, MDA-MB-231 cells were incubated overnight in serum-free medium supplemented with ITS liquid supplement (Sigma) with different concentrations of compound (1, 10, 17.5, 25 and 50 μM). Supematant was collected and concentrated with Ultrafree 30 kDA (Millipore). Equal amount of proteins, as determined by Bradford measurement, were loaded onto a 10% w/v polyacrylamide gel containing 1% gelatin and 0.1% SDS (Novex). After electrophoresis, gels were washed in Novex Zymogram Renaturing buffer for 30 min at room temperature and incubated overnight at 37° C. in Novex Zymogram developing buffer. Gels were stained in Coomassie Brilliant Blue G-250, and the gelatinolytic activity was visualized as a clear band against the blue background of the stained gelatin.

MMP-2 = experiment: Gelatin zymography; type: cell-based, human; conditions: zymogram gel, MDA-MB-231 supernatant
Method: as §2

MDA231 = experiment: Cytoskeleton analysis, actin staining; type: cell-based, human
Method: as §1

| Structure (SMILES) | concentration at which an increase in invasive properties was noted (MDA-MB-231 cells) [µM] | Cell architecture modification, actin staining NIH3T3, focal complexes (FC) (NIH3T3) | Cell architecture modification, actin staining NIH3T3, ruffles (R) (NIH3T3) | Cell architecture modification, actin staining HCT116, general observation (HCT116) | Cell architecture modification, actin staining H460, general observation (H460) | Ras-dependent neoR clones formation [1] | Colony formation [1] | melting point [°C] | concentration of dose-dependant inhibition of MMP-9 (MMP-9) [µM] | concentration of dose-dependant inhibition of MMP-2 (MMP-2) [µM] | Cell architecture modification, actin staining MDA231, general observation (MDA231) |
| --- | --- | --- | --- | --- | --- | --- | --- | --- | --- | --- | --- |
| CCCc1ccccc1OCCCCCOc1coc(CO)cc1=O [EH18900, 5-[5-(2-Propylphenyloxy)pentyloxy]-2-(hydroxymethyl)-4H-pyran-4-one] | 50 | FC+ | R− | cell spreading | cell spreading | inhibited | + |  |  |  |  |
| CCCc1c(OCCCCCOc2coc(CO)cc2=O)ccc(Cl)c1Cl [EH22900, 5-[5-(3,4-Dichloro-2-propylphenyloxy)pentyloxy]-2-(hydroxymethyl)-4H-pyran-4-one] |  | FC+ | R− |  |  | inhibited | + | 85 to 86 | 5 | 5 | increased MDA-MB-231 spreading; also recorded: cell spreading |
